How the values were obtained:
[1] = Degradation products in HPLC chromatograms of degraded samples; assay type: physicochemical
From the text: The major degradation product of tezacitabine seen in HPLC chromatograms of degraded samples is cytosine. Based on this, but without limitation to any specific theory, the mechanism of degradation is believed to involve hydrolysis of the glycosidic bond between the […] ring and the sugar ring. This hydrolysis reaction is believed to occur rapidly at low pH but much less rapidly at high pH. The liberated sugar moiety is believed subsequently to undergo rapid degradation to a spectrum of products, one or more of which are highly acidic as well as being colored. The cytosine may also further degrade to acid-producing and/or color-producing species. The degradation, therefore, has a propensity to become autocatalytic, as the liberated acid species would tend to lower the pH, thus accelerating the degradation of previously undegraded tezacitabine molecules.
Degradation of tezacitabine can readily be monitored by the use of high pressure liquid chromatography (HPLC) methods which separate the drug from its degradation products and quantitate the amount of intact drug remaining in the solution. Typically such studies are performed by filling aliquots of various tezacitabine solutions into appropriate containers (e.g., stoppered glass vials or sealed ampoules) and storing these samples for various periods of time under various storage conditions. […]

[2] = Stability of FMdC solution 10 mg/mL in various buffer systems at 40° C. (Example 4, HPLC); assay type: physicochemical; settings: for pH: 10 mg/mL
Protocol: In this study the stability of FMdC solution 10 mg/mL was studied in various buffer systems. FMdC solutions were made up and pH adjusted to target with sodium hydroxide. Solution samples were placed in stoppered glass vials and stored at 40° C. FMdC content was assessed at various times using the HPLC method described in Example 3 above.

- major degradation product [1]: cytosine
- pH ([2]; 20 mM TRIS, 0 mon): 9.42
- pH ([2]; 20 mM TRIS, 1 mon): 9.24
- pH ([2]; 20 mM TRIS, 2 mon): 9.05
- pH ([2]; 20 mM TRIS, 3 mon): 8.89
- pH ([2]; 20 mM TRIS, 4 mon): 8.58
- pH ([2]; 20 mM glycine, 0 mon): 9.60
- pH ([2]; 20 mM glycine, 1 mon): 9.32
- pH ([2]; 20 mM glycine, 2 mon): 9.24
- pH ([2]; 20 mM glycine, 3 mon): 9.11
- pH ([2]; 20 mM glycine, 4 mon): 8.86
- pH ([2]; 20 mM sodium phosphate, 0 mon): 9.36
- pH ([2]; 20 mM sodium phosphate, 1 mon): 8.32
- pH ([2]; 20 mM sodium phosphate, 2 mon): 7.76
- pH ([2]; 20 mM sodium phosphate, 3 mon): 7.72
- pH ([2]; 20 mM sodium phosphate, 4.7 mon): 4.65
- pH ([2]; 100 mM sodium phosphate, 0 mon): 9.44
- pH ([2]; 100 mM sodium phosphate, 1 mon): 9.14
- pH ([2]; 100 mM sodium phosphate, 2 mon): 8.69
- pH ([2]; 100 mM sodium phosphate, 3 mon): 8.47
- pH ([2]; 100 mM sodium phosphate, 4 mon): 8.18
- pH ([2]; 100 mM sodium phosphate, 6 mon): 7.80
- pH ([2]; 100 mM sodium phosphate, 9 mon): 7.14
Structure (SMILES): Nc1ccn([C@@H]2O[C@H](CO)[C@@H](O)/C2=C\F)c(=O)n1 [FMdC, (E)-2′-deoxy-2′-(fluoromethylene)cytidine]
- comparison of buffers in stabilizing FMdC ([2]; same buffer concentrations (20 mM)): glycine and TRIS are superior to phosphate

Source: US20030171329A1, “Stable compositions comprising tezacitabine” (priority 2002, published 2003)
